“And” between values parts separate entries of the source, which are not always exact repeats. Equal values may be shown once. “Also recorded” adds a separate entry of the source. Read-outs that look alike come from different tables or passages of the source. Marks after values point to notes of the source that are not given here.
How the values were obtained:
human GPR18 [1] = biological target: T1, human GPR18 (Homo sapiens, UniProt Q14330); assay: cell-based; conditions: for inhibition at 10 µM: CHO, read-out: % inhibition of Δ9-THC (10 µM)-induced β-arrestin recruitment at GPR18, test compound at 10 µM; for IC50: GPR18 IC50, β-arrestin recruitment, antagonist mode vs. Δ9-THC (10 µM)
T1 sequence (Q14330 1-331): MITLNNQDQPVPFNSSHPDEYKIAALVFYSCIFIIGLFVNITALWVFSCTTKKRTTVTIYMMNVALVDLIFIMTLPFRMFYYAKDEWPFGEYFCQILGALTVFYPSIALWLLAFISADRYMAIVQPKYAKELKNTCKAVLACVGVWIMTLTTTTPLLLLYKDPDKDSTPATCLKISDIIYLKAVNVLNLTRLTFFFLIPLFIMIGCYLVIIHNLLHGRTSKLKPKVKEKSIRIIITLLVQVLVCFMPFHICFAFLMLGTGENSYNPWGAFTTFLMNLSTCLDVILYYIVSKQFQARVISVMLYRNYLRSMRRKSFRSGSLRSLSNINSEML

human CB1 receptor [2] = biological target: T2, human CB1 receptor (Homo sapiens, UniProt P21554); assay: cAMP accumulation assay, CHO cells expressing CB1; format: cell-based
human CB2 receptor [3] = biological target: T3, human CB2 receptor (Homo sapiens, UniProt P34972); assay: cAMP accumulation assay, CHO cells expressing CB2; format: cell-based; conditions: for functional property at CB2 (agonist/antagonist): in words, standard ligands partly from the literature
human GPR55 = human GPR55 (Homo sapiens, UniProt Q9Y2T6); assay: β-arrestin recruitment assay (PathHunter), CHO cells expressing GPR55; conditions: for inhibition at 10 µM: CHO; for IC50: GPR55 IC50, β-arrestin recruitment, antagonist mode vs. LPI (1 µM); for functional property at GPR55 (agonist/antagonist): in words; for agonist effect on β-arrestin recruitment at GPR55: test compound 10 µM, related to effect of LPI 1 µM = 100%
human GPR18 [4] = biological target: T1, human GPR18; conditions: for functional property at GPR18 (agonist/antagonist): in words; for agonist effect on β-arrestin recruitment at GPR18: test compound 10 µM, related to effect of Δ9-THC 10 µM = 100%
human CB2 receptor [5] = biological target: T3, human CB2 receptor; assay: Radioligand binding (heterologous competition) vs. [3H]CP55,940 at CB2; conditions: for Ki: three independent experiments in duplicates
human CB1 receptor [6] = biological target: T2, human CB1 receptor; assay: biochemical; format: binding; conditions: for Ki: membranes of CHO cells expressing human CB1, three independent experiments in duplicates, read-out: Ki CB1, heterologous competition vs. [3H]CP55,940; for increase in CB1 receptor affinity compared to the unmethylated parent biphenyl: 60a vs 60, 61a vs 61
[7] = read-out: % inhibition of LPI (1 µM)-induced β-arrestin recruitment at GPR55
[8] = in words, standard ligands partly from the literature
[9] = read-out: % inhibition of LPI (1 µM)-induced β-arrestin recruitment at GPR55, test compound at 10 µM
[10] = inhibition of forskolin-stimulated cAMP, CHO-hCB1, read-out: EC50 CB1, cAMP accumulation assay
[11] = Ki CB2, heterologous competition vs. [3H]CP55,940, membranes of CHO cells expressing human CB2
[12] = membranes of CHO cells expressing human CB2, read-out: Ki CB2, heterologous competition vs. [3H]CP55,940
[13] = at 10 µM, compared to max. effect of full agonist CP55,940 (1 µM) = 100%

T3 sequence (P34972 whole entry): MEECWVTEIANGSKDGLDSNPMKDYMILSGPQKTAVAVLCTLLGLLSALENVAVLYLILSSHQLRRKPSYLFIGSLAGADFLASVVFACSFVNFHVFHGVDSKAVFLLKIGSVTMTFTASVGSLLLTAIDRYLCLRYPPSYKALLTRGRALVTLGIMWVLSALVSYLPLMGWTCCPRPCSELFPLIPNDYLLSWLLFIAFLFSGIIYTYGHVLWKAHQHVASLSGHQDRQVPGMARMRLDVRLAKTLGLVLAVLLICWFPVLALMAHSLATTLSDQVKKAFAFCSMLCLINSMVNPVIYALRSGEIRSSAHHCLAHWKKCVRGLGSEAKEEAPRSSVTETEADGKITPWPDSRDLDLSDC
T2 sequence (P21554 whole entry): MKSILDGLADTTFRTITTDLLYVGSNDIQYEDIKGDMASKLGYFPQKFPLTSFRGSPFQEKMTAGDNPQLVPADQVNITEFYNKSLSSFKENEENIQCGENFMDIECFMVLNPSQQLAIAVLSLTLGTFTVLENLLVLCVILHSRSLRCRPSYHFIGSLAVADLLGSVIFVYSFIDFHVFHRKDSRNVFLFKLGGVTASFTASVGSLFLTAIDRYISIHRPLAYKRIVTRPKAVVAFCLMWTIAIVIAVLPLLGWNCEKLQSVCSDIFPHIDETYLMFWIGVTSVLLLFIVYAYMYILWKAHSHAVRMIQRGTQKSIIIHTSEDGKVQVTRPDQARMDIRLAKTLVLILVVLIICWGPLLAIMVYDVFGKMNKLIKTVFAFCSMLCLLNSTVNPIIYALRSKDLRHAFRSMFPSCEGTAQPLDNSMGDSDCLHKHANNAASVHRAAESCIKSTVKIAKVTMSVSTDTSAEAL
Chain of human GPR55 (Q9Y2T6 whole entry): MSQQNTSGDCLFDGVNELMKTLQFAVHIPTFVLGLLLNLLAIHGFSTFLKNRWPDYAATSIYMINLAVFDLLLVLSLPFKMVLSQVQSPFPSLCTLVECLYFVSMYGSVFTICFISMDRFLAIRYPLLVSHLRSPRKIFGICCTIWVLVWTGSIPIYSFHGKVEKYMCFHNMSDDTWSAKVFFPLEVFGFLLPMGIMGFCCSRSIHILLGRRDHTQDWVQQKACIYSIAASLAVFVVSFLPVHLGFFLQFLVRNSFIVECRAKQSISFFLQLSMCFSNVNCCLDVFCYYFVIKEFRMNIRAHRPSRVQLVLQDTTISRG

Row | Structure (SMILES) | EC50 (human GPR18 [1]) [µM] | inhibition at 10 µM (human GPR18 [1]) [%] | IC50 (human GPR18 [1]) | functional property at CB2 (agonist/antagonist) (human CB2 receptor [3]) | EC50 (human GPR55) [µM] | inhibition at 10 µM (human GPR55; [7]) [%] | IC50 (human GPR55) | functional property at GPR55 (agonist/antagonist) (human GPR55) | agonist effect on β-arrestin recruitment at GPR55 (human GPR55) [%] | functional property at GPR18 (agonist/antagonist) (human GPR18 [4]) | agonist effect on β-arrestin recruitment at GPR18 (human GPR18 [4]) [%] | functional property at CB1 (agonist/antagonist) (human CB1 receptor [2]; [8]) | inhibition at 10 µM (human GPR55; [9]) [%] | EC50 (human CB2 receptor [3]) [µM] | Ki (human CB2 receptor [5]; [11]) [µM] | Ki (human CB1 receptor [6]) [µM] | EC50 (human CB1 receptor [2]) [µM] | also measured
1 | CCCCCCC(C)(C)c1ccc(C2CC(O)CCC2CCCO)c(O)c1 (single isomer, unassigned; (-)) [Compound 4, (-)-cis-3-[2-hydroxy-4-(1,1-dimethylheptyl)phenyl]-trans-4-(3-hydroxypropyl)cyclohexanol, reference compound] | > 10 | 188 | 5.99 ± 1.88 µM | agonist | > 10 | 93 | 1.61 ± 0.47 µM | antagonistic activity; also recorded: antagonist | 4 | inverse agonistic activity; also recorded: antagonist | 0 |  |  |  |  |  |  | functional property at CB1 (agonist/antagonist) (human CB1 receptor [2]): agonist
2 | COc1ccc(-c2oc3cc(OC)ccc3c2C(=O)c2ccc(C#N)cc2)cc1 [Compound 6, reference compound] | > 10 | 81 | 4.97 ± 1.51 µM | antagonist | > 10 |  | 4.14 ± 1.05 µM | antagonist | 0 | antagonist | 0 | antagonist | 81 |  |  |  |  | 
3 | COc1ccc(C(=O)c2c(C)n(CCN3CCOCC3)c3cc(I)ccc23)cc1 [Compound 7, reference compound] | > 10 | 52 | ~10 µM | antagonist | > 10 | 48 | ≥ 10 µM | antagonist | 22 | antagonist | 0 | agonist |  |  |  |  |  | 
4 | CCCc1ccc(O)c(-c2cc(CCC)ccc2O)c1 [Compound 12, tetrahydromagnolol] | > 10 | 64 | 30.9 ± 15.8 µM | agonist | > 10 | 96 | 13.2 ± 4 µM | antagonist | 24 | antagonist | 0 | agonist |  |  |  |  |  | 
5 | CCCc1ccc(O)c(-c2cc(CCC)ccc2OC)c1 [Compound 12a, methoxytetrahydromagnolol] | > 10 | 41 | ~10 µM | Full agonists; also recorded: agonist | > 10 | 82 | 4.55 ± 1.08 µM | antagonist | 0 | antagonist | 26 | Full agonists; also recorded: agonist |  | 0.0778 ± 0.0205 | 0.221 ± 0.057 | 0.267 ± 0.058 |  | EC50 (human CB1 receptor [2]; [10]): 0.622 ± 0.284 µM
6 | CCCCc1ccc(O)c(-c2cc(CCCC)ccc2O)c1 [Compound 43] | > 10 | 74 | 12 ± 1.4 µM |  | > 10 |  | > 10 µM |  | 29 |  | 0 |  | 0 | 0.378 ± 0.148 |  | 2.7 ± 1.2 | 7.11 ± 1.43 | Ki (human CB2 receptor [5]; [12]): 1.59 ± 0.04 µM
7 | CCCCCc1ccc(O)c(-c2cc(CCCCC)ccc2O)c1 [Compound 44] | > 10 | 128 | 12 ± 2.7 µM |  | > 10 |  | > 10 µM |  | 26 |  | 0 |  | 2 | 2.3 ± 0.71 |  | 3.13 ± 1.13 | 4.54 ± 0.83 | Ki (human CB2 receptor [5]; [12]): 0.833 ± 0.123 µM
8 | CCCCCc1ccc(O)c(-c2cc(CCC)ccc2O)c1 [Compound 60, 5-Pentyl-5′-propylbiphenyl-2,2′-diol] | > 10 | 118 | 14.5 ± 2.8 µM | partial agonists; also recorded: almost full efficacy; also recorded: agonist | > 10 |  | > 10 µM and ~10 µM | antagonist | 28 | antagonist | 0 | full agonistic effects; also recorded: full agonists; also recorded: agonist | 45 | 0.258 ± 0.013 | 0.0371 ± 0.0078 | 0.362 ± 0.113 | 0.971 ± 0.089 | 
9 | CCCCCc1ccc(O)c(-c2cc(CCC)ccc2OC)c1 [Compound 60a, 2-(2-methoxy-5-propyl-phenyl)-4-pentylphenol] | > 10 | 47 | > 10 µM and ~10 µM | Full agonists; also recorded: agonist | > 10 | 66 | 6.93 ± 1.06 µM | antagonist | 0 | antagonist | 22 | Full agonists; also recorded: agonist |  | 0.0399 ± 0.01 | 0.031 ± 0.0099 | 0.0173 ± 0.0014 |  | EC50 (human CB1 receptor [2]; [10]): 0.0375 ± 0.0056 µM; increase in CB1 receptor affinity compared to the unmethylated parent biphenyl (human CB1 receptor [6]): 21 fold
10 | CCCCCCc1ccc(O)c(-c2cc(CCC)ccc2O)c1 [Compound 61, 5-Hexyl-5′-propylbiphenyl-2,2′-diol] | > 10 | 139 | ~10.4 µM and 10.4 µM | almost full efficacy; also recorded: partial agonists; also recorded: agonist | > 10 |  | > 10 µM and ~10 µM | antagonist | 32 | antagonist | 0 | full agonistic effects; also recorded: full agonists; also recorded: agonist | 45 | 0.159 ± 0.018 | 0.0294 ± 0.009 | 0.145 ± 0.048 | 0.829 ± 0.278 | selectivity for CB1 versus GPR18 (human GPR18 [4]; Ki CB1 vs estimated GPR18 IC50): approximately 70 fold; selectivity for CB2 versus GPR18 (human GPR18 [4]; Ki CB2 vs estimated GPR18 IC50): ~350 fold
11 | CCCCCCc1ccc(O)c(-c2cc(CCC)ccc2OC)c1 [Compound 61a, 5-Hexyl-2′-methoxy-5′-propylbiphenyl-2-ol] | > 10 | 30 | > 10 µM | Full agonists; also recorded: agonist | > 10 | 58 | ~10 µM | antagonist | 0 | antagonist | 0 | Full agonists; also recorded: agonist |  | 0.0385 ± 0.017 | 0.0238 ± 0.0071 | 0.00957 ± 0.00543 |  | EC50 (human CB1 receptor [2]; [10]): 0.159 ± 0.076 µM; increase in CB2 receptor affinity of 61a compared to isomer 61b (human CB2 receptor [5]): 12 fold; increase in CB1 receptor affinity of 61a compared to isomer 61b (human CB1 receptor [6]): 33 fold; increase in CB1 receptor affinity compared to the unmethylated parent biphenyl (human CB1 receptor [6]): 15 fold
12 | CCCCCCCc1ccc(O)c(-c2cc(CCC)ccc2O)c1 [Compound 62] | > 10 | 123 | 10.6 ± 0.4 µM |  | > 10 |  | > 10 µM |  | 5 |  | 0 |  | 17 |  |  |  |  | efficacy CB1, cAMP accumulation assay (human CB1 receptor [2]; [13]): (110%)^b; efficacy CB2, cAMP accumulation assay (human CB2 receptor [3]; [13]): (57%)^b

Reference: paper PMC3813752 (PLoS ONE, 2013)
